Assay [1] concerns SH-SY5Y-xenografted mice. The assay is described as follows: Tumor volume in SH-SY5Y-xenografted mice. The settings on record: 80 mg/kg 7-NI, after 1 month, vs control. The format is in vivo. How it is done: Data are presented as mean±SEM. Statistical significance was determined using a One-way ANOVA followed by Fisher's LSD multiple comparison post hoc test. **P<0.01.
The subject of assay [2] is U87-MG-xenografted mice. As to the kind of experiment: Survival of U87-MG-xenografted mice. The format is in vivo. The settings on record: 80 or 120 mg/kg 7-NI daily, vs saline vehicle.
Assay [3] concerns SH-SY5Y cells. The assay is described as follows: NADPH-diaphorase activity assay (NOS activity) in SH-SY5Y cell lysates. The format is cell-based, human. The settings on record: 100 μM 7-NI, 24 hr. How it is done:
Human neuroblastoma (“NB”) SH-SY5Y cells were obtained from the American Type Culture Collection (ATCC) and maintained in Dulbecco's modified Eagle's medium (DMEM) and Ham's F-12 (1:1) supplemented with 10% fetal bovine serum, 2 mM L-glutamine, and 100 U/ml penicillin-G/[…] streptomycin in the humidified atmosphere (37° C., 5% CO2). Cells were plated onto 25 cm^2 and 75 cm^2 at a density of […] respectively for Western blotting (WB) and 1×10^5 for immunofluorescence. The SH-SY5Y cells were treated with 100 μM 7-nitroindazole (7-NI) for 24 hr. This concentration was confirmed in the dose-response experiment (FIG. 1) using an MTT viability assay.
The NADPH-diaphorase activity assay was used to determine the NOS activity based on the NADPH-dependent reduction of nitro-blue tetrazolium salt (NBT) to visible formazan. SH-SYSY cells grown in six-well culture plates were lysed in 50 mM Tris-HCl buffer (pH 7.4), containing 0.1% Triton X-100, 2 mM EDTA, and a protease inhibitor cocktail (Sigma, St. Louis, MO). […] After a 15 min incubation period at 37° C., the production of formazan was measured spectrophotometrically at 585 nm. The data were expressed as absorbance units and normalized for the protein content of each sample. Protein concentration was measured by the bicinchoninic acid (BCA) protein assay using BSA as a standard. […]

Assay [4] has as its system SH-SY5Y cells. The assay is described as follows: Clonogenic survival assay in SH-SY5Y cells. The format is cell-based, human. The settings on record: 7-NI, 14 days. As to the method: Cells were seeded into 6-well plates at concentrations of 500/well or 1000/well in triplicates. After 24 hours, 7-NI was added, or cells were transiently transfected with siRNA-nNOS, as described above (SEQ ID NO: 4), before changing to serum-containing medium. Cells were incubated for 14 days to form visible colonies. Colonies were stained with crystal violet, washed with PBS, air-dried, and imaged. The colonies were visualized using ImageJ software. Cell colonies of greater than 50 cells were identified and counted.

Assay [5] concerns SH-SY5Y cells. As to the kind of experiment: Xenograft neuroblastoma model, SH-SY5Y cells in NSG mice. The format is in vivo. The settings on record: NSG male mice, 80 mg/kg 7-NI intraperitoneally three times per week, one month, vs control. As to the method:
A xenograft neuroblastoma model was generated by injecting 4.0×10^6 SH-SY5Y cells (in a 50:50 mixture of PBS and matrigel basement membrane matrix) into the subcutaneous tissue in the flank of NOD SCID Gamma (NSG) male mice. Mice were 6-8 weeks old at time of injections. The mice were examined for 1 month.
Two treatment groups of mice were used (n=8), wherein one group was administered control, and the second group was administered 80 mg/kg of 7-NI administered intraperitoneally three times per week. Treatment started after five days from the injection with SH-SY5Y cells. After one month, all mice were euthanized, and tumors were harvested for ex vivo analysis and histology. Tumor volume was measured using calipers and was calculated as (length^2*width)/2

In assay [6] the test system is U87-MG cells. The assay is described as follows: Xenograft glioblastoma model, U87-MG cells in NSG mice: tumor volume and mass. The format is in vivo. How it is done:
(§1) A xenograft glioblastoma model was generated by injecting 1.0×10^6 U87-MG cells (in PBS) into the subcutaneous tissue in the flank of NOD SCID Gamma (NSG) male (n=40) and female mice (n=5). Mice were 6-7 weeks old at time of injections. Mice were divided into groups and treatment was started when tumor volume reached 50 mm^3.
An initial experiment was performed with two treatment groups of mice, the treatment groups were: 0.1% DMSO (“Vehicle”) (n=10) and 80 mg/kg of 7-NI (n=10). Treatments were administered intraperitoneally daily for 8 days. Treatment started after five days from the injection with U87-MG cells. After one month, all mice were euthanized, and tumors were harvested for ex vivo analysis and histology. Tumor volume was measured using calipers and was calculated as (length*width^2)/2. The tumor volume of all mice were tabulated, as well the best 4-5 mice in terms of treatment efficacy (smallest tumor volume).
A dose response experiment was performed in the mice, the treatment groups were 0.1% DMSO (“Vehicle”) (n=8), 20 mg/kg 7-NI (n=8), 40 mg/kg 7-NI (n=8), and 80 mg/kg 7-NI (n=8). Treatments were administered intraperitoneally daily, for 14 days. Treatment started after five days from the injection with U87-MG cells. All mice were euthanized, and tumors were harvested for ex vivo analysis and histology. Tumor volume was measured using calipers and was calculated as (length*width^2)/2. The tumor volume of all mice were tabulated, as well the tumor mass.

Assay [7] relates to U87-MG cells. The assay is described as follows: Xenograft glioblastoma model, U87-MG cells in NSG mice: survival experiment. The format is in vivo. The settings on record: 80 mg/kg or 120 mg/kg 7-NI intraperitoneally daily, vehicle-treated mice 35 days. As to the method:
as §1
A survival experiment was performed in the mice, the treatment groups were saline (“Vehicle”) (n=10), 80 mg/kg 7-NI (n=10), and 120 mg/kg 7-NI (n=8). Treatments were administered intraperitoneally daily.

Assay [8] has as its system CD70. The assay is described as follows: CD70 expression level in U87-MG cells. The format is cell-based, human. The settings on record: both the lower and higher doses, compared to the control; not statistically significant (FIG. 13).
The subject of assay [9] is nNOS. The assay is described as follows: nNOS expression level in U87-MG cells. The format is cell-based, human. The settings on record: both the lower dose and higher dose, compared to the control treatment; not statistically significant (FIG. 15).
Assay [10] relates to U87-MG cells. As to the kind of experiment: Griess assay, nitrite and nitrate content. The format is cell-based, human. The settings on record: L-NIL alone, compared to the control (summary statement). As to the method:
In a particular example, in vitro and in vivo experiments were performed using U87-MG cells and U87-MG-xenografted mice, respectively, as a glioblastoma model.
In general terms: Nitrite, measured by Griess reagent, commonly stands in for NO production.

[11] abbreviates: highest dosage of 7-NI (80 mg/kg) in dose response experiment, daily for 14 days, vs lower dosages.
Where [12] appears, read: reduced dosages, as low as 20 mg/kg 7-NI intraperitoneally daily for 14 days, vs vehicle.

From US20260284009A1, “COMPOUNDS FOR NOS-RELATED CANCERS AND METHODS OF USE” (YISSUM RESEARCH DEVELOPMENT COMPANY OF THE HEBREW …, priority 2023, published 2026) come the findings set out here.

In the case of `O=[N+]([O-])c1cccc2cn[nH]c12` [7-NI, 7-nitroindazole], in assay [1], the tumor volume result is on record as “significantly smaller”. The survival result in [2] was “increased survival”. The “NADPH diaphorase activity (NOS activity)” value in [3] is listed as “significantly inhibited”. Also, the number of colonies entry in assay [4] is reported as “decrease”. The average tumor size result is given as “significantly smaller” in assay [5]; “significantly smaller” in assay [6] (NSG mice, 80 mg/kg 7-NI intraperitoneally daily for 8 days, vs vehicle); “larger reduction” in [6] (setting [11]); “significantly smaller” in assay [6] (setting [12]). Besides, the tumor mass result in assay [6] (setting [11]) is on record as “larger reduction”; in assay [6] (setting [12]) it was “smaller”. The median survival in assay [7] is recorded as ~ 65 days.
For `CC(=N)NCCCC[C@H](N)C(=O)O` [L-NIL, N^6-(1-iminoethyl)-L-lysine], in assay [8], the “expression level of CD70” value is listed as “slightly decreased”. Besides, in assay [9], the “expression level of nNOS” value is on record as “reduced”. Besides, in assay [10], the “total nitrate and nitrite content” value is recorded as “significantly reduced”.
